# From patent publication US12077503B2, “Substituted cyclic amides and their use as herbicides” (FMC CORPORATION, priority 2015, dated 2024)
# Key:
# Experiment in all cases: Test C preemergence
# Format in all cases: in vivo
# [1] = tested on: Galium (catchweed bedstraw, Galium aparine); settings: for Plant response rating, Galium: scale 0 to 100, 0 no effect, 100 complete control
# Method in brief: (§1)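 Preemergence: sow in loam-sand soil and treat. Postemergence: grow in peat-moss/vermiculite medium to 2–18 cm (1–4 leaves) and spray. Compound in non-phytotoxic solvent with surfactant; keep in greenhouse 13–15 d; score visually against controls, 0 (none) to 100 (full control).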
# [2] = tested on: barnyardgrass (Echinochloa crus-galli); settings: for Plant response rating, Barnyardgrass: scale 0 to 100, 0 no effect, 100 complete control
# Method in brief: as §1
# [3] = tested on: blackgrass (Alopecurus myosuroides); settings: for Plant response rating, Blackgrass: scale 0 to 100, 0 no effect, 100 complete control
# Method in brief: as §1
# corn (Zea mays) = settings: for Plant response rating, Corn: scale 0 to 100, 0 no effect, 100 complete control
# Method in brief: as §1
# [4] = tested on: crabgrass, large (large crabgrass, Digitaria sanguinalis); settings: for Plant response rating, Crabgrass, Large: scale 0 to 100, 0 no effect, 100 complete control
# Method in brief: as §1
# [5] = tested on: foxtail, giant (giant foxtail, Setaria faberii); settings: for Plant response rating, Foxtail, Giant: scale 0 to 100, 0 no effect, 100 complete control
# Method in brief: as §1
# [6] = tested on: johnsongrass (Sorghum halepense); settings: for Plant response rating, Johnsongrass: scale 0 to 100, 0 no effect, 100 complete control
# Method in brief: as §1
# [7] = tested on: lambsquarters (Chenopodium album); settings: for Plant response rating, Lambsquarters: scale 0 to 100, 0 no effect, 100 complete control
# Method in brief: as §1
# [8] = tested on: morningglory (Ipomoea coccinea); settings: for Plant response rating, Morningglory: scale 0 to 100, 0 no effect, 100 complete control
# Method in brief: as §1
# [9] = tested on: nutsedge, yellow (yellow nutsedge, Cyperus esculentus); settings: for Plant response rating, Nutsedge, Yellow: scale 0 to 100, 0 no effect, 100 complete control
# Method in brief: as §1
# [10] = tested on: oilseed rape (Brassica napus); settings: for Plant response rating, Oilseed Rape: scale 0 to 100, 0 no effect, 100 complete control
# Method in brief: as §1
# [11] = tested on: pigweed (Amaranthus retroflexus); settings: for Plant response rating, Pigweed: scale 0 to 100, 0 no effect, 100 complete control
# Method in brief: as §1
# [12] = tested on: ragweed (common ragweed, Ambrosia elatior); settings: for Plant response rating, Ragweed: scale 0 to 100, 0 no effect, 100 complete control
# Method in brief: as §1
# [13] = tested on: ryegrass, Italian (Italian ryegrass, Lolium multiflorum); settings: for Plant response rating, Ryegrass, Italian: scale 0 to 100, 0 no effect, 100 complete control
# Method in brief: as §1
# soybean (Glycine max) = tested on: soybean (Glycine max)
# Method in brief: as §1
# [14] = tested on: velvetleaf (Abutilon theophrasti); settings: for Plant response rating, Velvetleaf: scale 0 to 100, 0 no effect, 100 complete control
# Method in brief: as §1
# [15] = tested on: waterhemp (common waterhemp, Amaranthus rudis); settings: for Plant response rating, Waterhemp: scale 0 to 100, 0 no effect, 100 complete control
# Method in brief: as §1
# [16] = tested on: wheat (winter wheat, Triticum aestivum); settings: for Plant response rating, Wheat: scale 0 to 100, 0 no effect, 100 complete control
# Method in brief: as §1
# [17] = 31 g ai/ha, 0 is no effect, 100 is complete control
structure (smiles),measurement,setting,value
CC(C)Oc1cccc(C2CN(C)C(=O)C2C(=O)Nc2cccc(F)c2F)c1 (stereo not shown) [Compound 651],"Plant response rating (scale of 0 to 100), Galium",[1]; [17],60
same,"Plant response rating, Galium",[1]; 62 g ai/ha,50
same,"Plant response rating, Galium",[1]; 125 g ai/ha,90
same,"Plant response rating, Galium",[1]; 250 g ai/ha,90
same,"Plant response rating (scale of 0 to 100), Barnyardgrass",[2]; [17],95
same,"Plant response rating, Barnyardgrass",[2]; 62 g ai/ha,98
same,"Plant response rating, Barnyardgrass",[2]; 125 g ai/ha,100
same,"Plant response rating, Barnyardgrass",[2]; 250 g ai/ha,100
same,"Plant response rating (scale of 0 to 100), Blackgrass",[3]; [17],40
same,"Plant response rating, Blackgrass",[3]; 62 g ai/ha,45
same,"Plant response rating, Blackgrass",[3]; 125 g ai/ha,60
same,"Plant response rating, Blackgrass",[3]; 250 g ai/ha,85
same,"Plant response rating (scale of 0 to 100), Corn",corn (Zea mays); [17],25
same,"Plant response rating, Corn",corn (Zea mays); 62 g ai/ha,55
same,"Plant response rating, Corn",corn (Zea mays); 125 g ai/ha,70
same,"Plant response rating, Corn",corn (Zea mays); 250 g ai/ha,70
same,"Plant response rating (scale of 0 to 100), Crabgrass, Large",[4]; [17],98
same,"Plant response rating, Crabgrass, Large",[4]; 62 g ai/ha,100
same,"Plant response rating, Crabgrass, Large",[4]; 125 g ai/ha,100
same,"Plant response rating, Crabgrass, Large",[4]; 250 g ai/ha,100
same,"Plant response rating (scale of 0 to 100), Foxtail, Giant",[5]; [17],95
same,"Plant response rating, Foxtail, Giant",[5]; 62 g ai/ha,98
same,"Plant response rating, Foxtail, Giant",[5]; 125 g ai/ha,98
same,"Plant response rating, Foxtail, Giant",[5]; 250 g ai/ha,100
same,"Plant response rating (scale of 0 to 100), Johnsongrass",[6]; [17],20
same,"Plant response rating, Johnsongrass",[6]; 62 g ai/ha,50
same,"Plant response rating, Johnsongrass",[6]; 125 g ai/ha,70
same,"Plant response rating, Johnsongrass",[6]; 250 g ai/ha,80
same,"Plant response rating (scale of 0 to 100), Lambsquarters",[7]; [17],35
same,"Plant response rating, Lambsquarters",[7]; 62 g ai/ha,55
same,"Plant response rating, Lambsquarters",[7]; 125 g ai/ha,85
same,"Plant response rating, Lambsquarters",[7]; 250 g ai/ha,100
same,"Plant response rating (scale of 0 to 100), Morningglory",[8]; [17],0
same,"Plant response rating, Morningglory",[8]; 62 g ai/ha,0
same,"Plant response rating, Morningglory",[8]; 125 g ai/ha,0
same,"Plant response rating, Morningglory",[8]; 250 g ai/ha,0
same,"Plant response rating (scale of 0 to 100), Nutsedge, Yellow",[9]; [17],0
same,"Plant response rating, Nutsedge, Yellow",[9]; 62 g ai/ha,0
same,"Plant response rating, Nutsedge, Yellow",[9]; 125 g ai/ha,0
same,"Plant response rating, Nutsedge, Yellow",[9]; 250 g ai/ha,0
same,"Plant response rating (scale of 0 to 100), Oilseed Rape",[10]; [17],75
same,"Plant response rating, Oilseed Rape",[10]; 62 g ai/ha,80
same,"Plant response rating, Oilseed Rape",[10]; 125 g ai/ha,90
same,"Plant response rating, Oilseed Rape",[10]; 250 g ai/ha,90
same,"Plant response rating (scale of 0 to 100), Pigweed",[11]; [17],35
same,"Plant response rating, Pigweed",[11]; 62 g ai/ha,40
same,"Plant response rating, Pigweed",[11]; 125 g ai/ha,50
same,"Plant response rating, Pigweed",[11]; 250 g ai/ha,85
same,"Plant response rating (scale of 0 to 100), Ragweed",[12]; [17],20
same,"Plant response rating, Ragweed",[12]; 62 g ai/ha,25
same,"Plant response rating, Ragweed",[12]; 125 g ai/ha,60
same,"Plant response rating, Ragweed",[12]; 250 g ai/ha,85
same,"Plant response rating (scale of 0 to 100), Ryegrass, Italian",[13]; [17],15
same,"Plant response rating, Ryegrass, Italian",[13]; 62 g ai/ha,40
same,"Plant response rating, Ryegrass, Italian",[13]; 125 g ai/ha,75
same,"Plant response rating, Ryegrass, Italian",[13]; 250 g ai/ha,85
same,"Plant response rating (scale of 0 to 100), Soybean",soybean (Glycine max); [17],5
same,"Plant response rating, Soybean","soybean (Glycine max); 125 g ai/ha, scale 0 to 100, 0 no effect, 100 complete control",0
same,"Plant response rating (scale of 0 to 100), Velvetleaf",[14]; [17],25
same,"Plant response rating, Velvetleaf",[14]; 62 g ai/ha,45
same,"Plant response rating, Velvetleaf",[14]; 125 g ai/ha,70
same,"Plant response rating, Velvetleaf",[14]; 250 g ai/ha,70
same,"Plant response rating (scale of 0 to 100), Waterhemp",[15]; [17],20
same,"Plant response rating, Waterhemp",[15]; 62 g ai/ha,40
same,"Plant response rating, Waterhemp",[15]; 125 g ai/ha,50
same,"Plant response rating, Waterhemp",[15]; 250 g ai/ha,85
same,"Plant response rating (scale of 0 to 100), Wheat",[16]; [17],50
same,"Plant response rating, Wheat",[16]; 62 g ai/ha,50
same,"Plant response rating, Wheat",[16]; 125 g ai/ha,55
same,"Plant response rating, Wheat",[16]; 250 g ai/ha,75
